One test addresses EGFR1 (HER-1) (Homo sapiens (Human), UniProt P00533). Description: EGFR1 (HER-1) enzyme assay, fluorescence polarization. Format: biochemical. The settings on record: 100 μM ATP, poly(Glu, Tyr) substrate. A general note: Fluorescence polarisation rises when a labelled molecule tumbles more slowly, as on binding a larger partner.
Test [1] relates to skin cancer cell line, A431. Description: Inhibitory effect on growth of cancer cell line A431, SRB. Type of test: cell-based. The settings on record: overexpressed EGFR1 (HER-1). An outline of the steps:
(§1)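 Cells were cultured in DMEM with 10% FBS. Compounds were applied at 10 μM with 10-fold serial dilution to 10^−4, DMSO <1%, for 72 h at 37 °C. Cells were then TCA-fixed and stained with 0.4% SRB, and absorbance was read at 570 nm after solubilisation in 10 mM Tris base.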

Another test concerns the target VEGFR2 (KDR) (Homo sapiens (Human), UniProt P35968). As to the kind of experiment: VEGFR2 (KDR) enzyme assay, fluorescence polarization. Type of test: biochemical. The following applies: 5 μM ATP, poly(Glu, Tyr) substrate. An outline of the steps:
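Autophosphorylation read by fluorescence polarization: VEGFR2 (Proquinase) at 200 ng/10 μl with 5 μM ATP and 10 ng/ml poly(Glu,Tyr) 4:1, in 20 mM HEPES pH 7.4, 5 mM MgCl2, 2 mM MnCl2, 50 μM Na3VO4. Reaction 1 h at room temperature, EDTA stop, then anti-phosphotyrosine antibody/tracer for 30 min in the dark.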

The test system of test [2] is colon and rectal cancer cell line, SW-620. As to the kind of experiment: Inhibitory effect on growth of cancer cell line SW-620, SRB. The following applies: not having overexpressed EGFR and EGFR2. Format: cell-based. An outline of the steps: as §1
Test [3] has as its system Human Umbilical Vein Endothelial Cell (HUVEC). Description: Inhibitory effect on growth of human umbilical vein endothelial cell (HUVEC), MTS. The following applies: 10 ng/ml VEGF, absorbance 490 nm. Format: cell-based.
The test system of test [4] is breast cancer cell line, SK-Br3. As to the kind of experiment: Inhibitory effect on growth of cancer cell line SK-Br3, SRB. Format: cell-based. The following applies: overexpressed EGFR2 (HER-2). An outline of the steps:
as §1

Sequence of EGFR1 (HER-1) (P00533 25-1210): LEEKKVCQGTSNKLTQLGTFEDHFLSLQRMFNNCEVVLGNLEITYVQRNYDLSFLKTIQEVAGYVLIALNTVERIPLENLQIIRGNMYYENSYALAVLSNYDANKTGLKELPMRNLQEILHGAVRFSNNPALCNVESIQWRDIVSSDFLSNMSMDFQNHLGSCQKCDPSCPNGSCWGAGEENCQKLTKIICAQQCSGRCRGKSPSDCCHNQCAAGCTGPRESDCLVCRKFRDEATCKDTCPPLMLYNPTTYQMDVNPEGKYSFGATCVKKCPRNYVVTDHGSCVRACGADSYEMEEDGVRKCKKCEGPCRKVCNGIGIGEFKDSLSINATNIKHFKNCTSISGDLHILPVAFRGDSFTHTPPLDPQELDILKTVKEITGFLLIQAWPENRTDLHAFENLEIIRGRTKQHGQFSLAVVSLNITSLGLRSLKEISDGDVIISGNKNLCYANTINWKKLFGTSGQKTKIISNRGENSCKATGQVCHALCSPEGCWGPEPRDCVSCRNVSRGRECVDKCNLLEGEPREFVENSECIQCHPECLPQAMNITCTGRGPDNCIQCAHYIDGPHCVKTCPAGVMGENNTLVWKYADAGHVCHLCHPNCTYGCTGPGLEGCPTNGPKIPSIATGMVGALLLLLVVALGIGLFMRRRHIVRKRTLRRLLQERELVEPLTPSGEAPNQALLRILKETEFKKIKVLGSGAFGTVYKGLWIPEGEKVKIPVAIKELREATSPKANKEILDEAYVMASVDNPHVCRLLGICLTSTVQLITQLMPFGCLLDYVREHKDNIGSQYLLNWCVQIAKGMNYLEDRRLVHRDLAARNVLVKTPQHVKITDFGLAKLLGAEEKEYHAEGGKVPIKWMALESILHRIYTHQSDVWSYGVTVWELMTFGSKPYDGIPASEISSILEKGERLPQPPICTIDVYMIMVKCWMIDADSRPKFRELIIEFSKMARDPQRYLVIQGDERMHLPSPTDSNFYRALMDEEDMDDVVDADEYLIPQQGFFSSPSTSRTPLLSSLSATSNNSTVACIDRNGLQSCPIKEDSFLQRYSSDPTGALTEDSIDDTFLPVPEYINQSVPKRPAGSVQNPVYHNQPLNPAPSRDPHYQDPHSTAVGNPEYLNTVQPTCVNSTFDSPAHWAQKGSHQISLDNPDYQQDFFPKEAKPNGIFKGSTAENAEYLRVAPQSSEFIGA
Sequence of VEGFR2 (KDR) (P35968 20-1356): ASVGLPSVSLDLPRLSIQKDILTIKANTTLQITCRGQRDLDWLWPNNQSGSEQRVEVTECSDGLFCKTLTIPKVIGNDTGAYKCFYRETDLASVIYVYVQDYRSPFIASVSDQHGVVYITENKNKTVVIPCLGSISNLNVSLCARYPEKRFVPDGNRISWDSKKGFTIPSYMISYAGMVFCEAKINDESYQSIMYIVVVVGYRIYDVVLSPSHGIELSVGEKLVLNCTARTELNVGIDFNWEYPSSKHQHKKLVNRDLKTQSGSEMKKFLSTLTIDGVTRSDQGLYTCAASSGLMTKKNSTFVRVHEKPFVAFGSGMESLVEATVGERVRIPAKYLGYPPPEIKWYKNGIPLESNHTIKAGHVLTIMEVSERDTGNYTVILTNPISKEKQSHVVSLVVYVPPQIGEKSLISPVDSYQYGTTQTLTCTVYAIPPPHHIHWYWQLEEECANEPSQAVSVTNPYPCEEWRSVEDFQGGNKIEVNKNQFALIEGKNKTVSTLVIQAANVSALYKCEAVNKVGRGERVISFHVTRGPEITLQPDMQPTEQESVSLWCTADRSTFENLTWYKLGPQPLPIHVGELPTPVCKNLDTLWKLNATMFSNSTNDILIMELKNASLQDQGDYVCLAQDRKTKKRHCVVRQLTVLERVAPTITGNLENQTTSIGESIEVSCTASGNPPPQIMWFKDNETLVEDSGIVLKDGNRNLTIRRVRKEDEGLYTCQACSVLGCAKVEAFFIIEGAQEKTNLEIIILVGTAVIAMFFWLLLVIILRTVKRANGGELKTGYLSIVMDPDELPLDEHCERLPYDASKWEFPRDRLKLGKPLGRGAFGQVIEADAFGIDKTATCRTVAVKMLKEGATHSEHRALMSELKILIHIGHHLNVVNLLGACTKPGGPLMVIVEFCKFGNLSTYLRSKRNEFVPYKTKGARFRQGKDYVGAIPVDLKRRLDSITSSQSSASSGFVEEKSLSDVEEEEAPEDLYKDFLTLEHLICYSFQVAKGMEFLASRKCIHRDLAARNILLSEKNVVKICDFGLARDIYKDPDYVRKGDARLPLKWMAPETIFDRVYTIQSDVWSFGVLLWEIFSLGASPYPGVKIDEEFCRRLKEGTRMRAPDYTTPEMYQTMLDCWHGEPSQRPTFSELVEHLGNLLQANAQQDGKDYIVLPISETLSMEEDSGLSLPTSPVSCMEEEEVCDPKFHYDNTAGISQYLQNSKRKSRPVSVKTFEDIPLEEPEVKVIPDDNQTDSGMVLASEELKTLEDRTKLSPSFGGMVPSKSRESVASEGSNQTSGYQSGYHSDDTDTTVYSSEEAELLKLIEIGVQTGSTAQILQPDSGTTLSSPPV

What is called IC50 is the concentration needed to halve the response being measured. Read a high IC50 as lower potency. Take `C=CC(=O)Nc1cc2c(Nc3cc(Cl)c(Cl)cc3F)ncnc2cc1OCCNC(=O)CC` [Example 137, N-[4-(4,5-dichloro-2-fluoro-phenylamino)-7-(2-propionylamino-ethoxy)-quinazolin-6-yl]-acrylamide]: the 50% inhibitory concentration (IC50) on EGFR1 (HER-1) was 4 nM; in test [1] (Homo sapiens, A-431, 72 h), 5 nM; on VEGFR2 (KDR), 954 nM; in test [2] (Homo sapiens, 72 h) it was 9580 nM; in test [3] (Homo sapiens, 96 h) it was 951 nM; in test [4] (Homo sapiens, SK-BR-3, 72 h), 40 nM.

On to `C=CC(=O)Nc1cc2c(Nc3cc(Cl)c(Cl)cc3F)ncnc2cc1OCCNC(=O)COC` [Example 138, N-{4-(4,5-dichloro-2-fluoro-phenylamino)-7-[2-(2-methoxy-acetylamino)-ethoxy]-quinazolin-6-yl}-acrylamide], for which the IC50 against EGFR1 (HER-1) was 20 nM; in test [1] (Homo sapiens, A-431, 72 h), 21 nM; against VEGFR2 (KDR) it was 823 nM; in test [2] (Homo sapiens, 72 h) it was 721 nM; in test [3] (Homo sapiens, 96 h) it was 845 nM; in test [4] (Homo sapiens, SK-BR-3, 72 h), 39 nM.

With `C=CC(=O)Nc1cc2c(Nc3cc(Cl)c(Cl)cc3F)ncnc2cc1OCCNC(=O)CS(C)(=O)=O` [Example 139, N-{4-(4,5-dichloro-2-fluoro-phenylamino)-7-[2-(2-methanesulfonyl-acetylamino)-ethoxy]-quinazolin-6-yl}-acrylamide], the IC50 against EGFR1 (HER-1) was found to be 40 nM; in test [1] (Homo sapiens, A-431, 72 h), 48 nM; on VEGFR2 (KDR), 657 nM; in test [2] (Homo sapiens, 72 h) it was 2830 nM; in test [3] (Homo sapiens, 96 h), 682 nM; in test [4] (Homo sapiens, SK-BR-3, 72 h), 109 nM.

For `C=CC(=O)Nc1cc2c(Nc3cc(Cl)c(Cl)cc3F)ncnc2cc1OCCNC(=O)CN(C)C` [Example 140, N-{4-(4,5-dichloro-2-fluoro-phenylamino)-7-[2-(2-dimethylamino-acetylamino)-ethoxy]-quinazolin-6-yl}-acrylamide], the concentration for half-maximal inhibition (IC50) against EGFR1 (HER-1) turned out to be 9 nM; in test [1] (Homo sapiens, A-431, 72 h) it was 8 nM; against VEGFR2 (KDR), 751 nM; in test [2] (Homo sapiens, 72 h), 9540 nM; in test [3] (Homo sapiens, 96 h), 756 nM; in test [4] (Homo sapiens, SK-BR-3, 72 h), 57 nM.

For `C=CC(=O)Nc1cc2c(Nc3ccc(Br)c(Cl)c3F)ncnc2cc1OCCNC(C)=O` [Example 141, N-[7-(2-acetylamino-ethoxy)-4-(4-bromo-3-chloro-2-fluoro-phenylamino)-quinazolin-6-yl]-acrylamide], the IC50 against EGFR1 (HER-1) came to 13 nM; in test [1] (Homo sapiens, A-431, 72 h), 12 nM; at VEGFR2 (KDR), 56 nM; in test [2] (Homo sapiens, 72 h), 10000 nM; in test [3] (Homo sapiens, 96 h), 66 nM; in test [4] (Homo sapiens, SK-BR-3, 72 h) it was 37 nM.

For the compound `C=CC(=O)Nc1cc2c(Nc3ccc(Br)c(Cl)c3F)ncnc2cc1OCCNC(=O)CC` [Example 142, N-[4-(4-bromo-3-chloro-2-fluoro-phenylamino)-7-(2-propionylamino-ethoxy)-quinazolin-6-yl]-acrylamide], the IC50 against EGFR1 (HER-1) came out at 14 nM; in test [1] (Homo sapiens, A-431, 72 h), 15 nM; at VEGFR2 (KDR) it was 106 nM; in test [2] (Homo sapiens, 72 h), 10000 nM; in test [3] (Homo sapiens, 96 h), 132 nM; in test [4] (Homo sapiens, SK-BR-3, 72 h), 45 nM.

`C=CC(=O)Nc1cc2c(Nc3ccc(Br)c(Cl)c3F)ncnc2cc1OCCNC(=O)CN(C)C` [Example 143, N-{4-(4-bromo-3-chloro-2-fluoro-phenylamino)-7-[2-(2-dimethylamino-acetylamino)-ethoxy]-quinazolin-6-yl}-acrylamide]: the IC50 on EGFR1 (HER-1) is 19 nM; in test [1] (Homo sapiens, A-431, 72 h), 11 nM; on VEGFR2 (KDR) it was 87 nM; in test [2] (Homo sapiens, 72 h), 2810 nM; in test [3] (Homo sapiens, 96 h), 239 nM; in test [4] (Homo sapiens, SK-BR-3, 72 h), 7 nM.

Consider `C=CC(=O)Nc1cc2c(Nc3ccc(Br)c(Cl)c3F)ncnc2cc1OCCNC(=O)CCN(CC)CC` [Example 144, N-{4-(4-bromo-3-chloro-2-fluoro-phenylamino)-7-[2-(3-diethylamino-propionylamino)-ethoxy]-quinazolin-6-yl}-acrylamide], for which the IC50 came out at 7 nM on EGFR1 (HER-1); 6 nM in test [1] (Homo sapiens, A-431, 72 h); 54 nM against VEGFR2 (KDR); 721 nM in test [2] (Homo sapiens, 72 h); 154 nM in test [3] (Homo sapiens, 96 h); 12 nM in test [4] (Homo sapiens, SK-BR-3, 72 h).

For `C=CC(=O)Nc1cc2c(Nc3ccc(Br)c(Cl)c3F)ncnc2cc1OCCNC(=O)CCO` [Example 145, N-{4-(4-bromo-3-chloro-2-fluoro-phenylamino)-7-[2-(3-hydroxy-propionylamino)-ethoxy]-quinazolin-6-yl}-acrylamide], the IC50 worked out at 41 nM on EGFR1 (HER-1); 45 nM in test [1] (Homo sapiens, A-431, 72 h); 88 nM against VEGFR2 (KDR); 2630 nM in test [2] (Homo sapiens, 72 h); 116 nM in test [3] (Homo sapiens, 96 h); 58 nM in test [4] (Homo sapiens, SK-BR-3, 72 h).

Regarding `C=CC(=O)Nc1cc2c(Nc3ccc(Br)c(Cl)c3F)ncnc2cc1OCCNC(=O)COC` [Example 146, N-{4-(4-bromo-3-chloro-2-fluoro-phenylamino)-7-[2-(2-methoxy-acetylamino)-ethoxy]-quinazolin-6-yl}-acrylamide], the IC50 at EGFR1 (HER-1) is 213 nM; in test [1] (Homo sapiens, A-431, 72 h), 203 nM; at VEGFR2 (KDR) it was 257 nM; in test [2] (Homo sapiens, 72 h) it was 2790 nM; in test [3] (Homo sapiens, 96 h), 365 nM; in test [4] (Homo sapiens, SK-BR-3, 72 h) it was 97 nM.

For `C=CC(=O)Nc1cc2c(Nc3ccc(Br)c(Cl)c3F)ncnc2cc1OCCNC(=O)CCN1CCCCC1` [Example 147, N-{4-(4-bromo-3-chloro-2-fluoro-phenylamino)-7-[2-(3-piperidin-1-yl-propionylamino)-ethoxy]-quinazolin-6-yl}-acrylamide], the IC50 at EGFR1 (HER-1) is 12 nM; in test [1] (Homo sapiens, A-431, 72 h) it was 40 nM; against VEGFR2 (KDR), 79 nM; in test [2] (Homo sapiens, 72 h), 9530 nM; in test [3] (Homo sapiens, 96 h) it was 167 nM; in test [4] (Homo sapiens, SK-BR-3, 72 h), 125 nM.

With `C=CC(=O)Nc1cc2c(Nc3ccc(Br)c(Cl)c3F)ncnc2cc1OCCNC(=O)CO` [Example 149, N-{4-(4-bromo-3-chloro-2-fluoro-phenylamino)-7-[2-(2-hydroxy-acetylamino)-ethoxy]-quinazolin-6-yl}-acrylamide], the IC50 against EGFR1 (HER-1) came out at 16 nM; in test [1] (Homo sapiens, A-431, 72 h), 15 nM; against VEGFR2 (KDR), 147 nM; in test [2] (Homo sapiens, 72 h), 9560 nM; in test [3] (Homo sapiens, 96 h), 204 nM; in test [4] (Homo sapiens, SK-BR-3, 72 h), 41 nM.

Take `C=CC(=O)Nc1cc2c(Nc3ccc(Br)c(Cl)c3F)ncnc2cc1OCCNC(=O)CCOC` [Example 150, N-{4-(4-bromo-3-chloro-2-fluoro-phenylamino)-7-[2-(3-methoxy-propionylamino)-ethoxy]-quinazolin-6-yl}-acrylamide]: the IC50 is 21 nM on EGFR1 (HER-1); 22 nM in test [1] (Homo sapiens, A-431, 72 h); 278 nM against VEGFR2 (KDR); 9530 nM in test [2] (Homo sapiens, 72 h); 358 nM in test [3] (Homo sapiens, 96 h); 242 nM in test [4] (Homo sapiens, SK-BR-3, 72 h).

With `C=CC(=O)Nc1cc2c(Nc3ccc(Br)c(Cl)c3F)ncnc2cc1OCCNC(=O)CN(CC)CC` [Example 151, N-{4-(4-bromo-3-chloro-2-fluoro-phenylamino)-7-[2-(2-diethylamino-acetylamino)-ethoxy]-quinazolin-6-yl}-acrylamide], the concentration for half-maximal inhibition (IC50) at EGFR1 (HER-1) came to 58 nM; in test [1] (Homo sapiens, A-431, 72 h), 68 nM; at VEGFR2 (KDR) it was 309 nM; in test [2] (Homo sapiens, 72 h), 9520 nM; in test [3] (Homo sapiens, 96 h), 351 nM; in test [4] (Homo sapiens, SK-BR-3, 72 h) it was 153 nM.

Consider `C=CC(=O)Nc1cc2c(Nc3ccc(Br)cc3F)ncnc2cc1OCC(C)NC(=O)CN(C)C` (stereo not drawn) [Example 153], for which the IC50 on EGFR1 (HER-1) came out at 172 nM; in test [1] (72 hours), 160 nM; against VEGFR2 (KDR), 433 nM; in test [2] (72 hours), 9570 nM; in test [3] (96 hours), 521 nM; in test [4] (72 hours), 207 nM.

Turning to `C=CC(=O)Nc1cc2c(Nc3ccc(Br)cc3F)ncnc2cc1OCC(C)NC(=O)CCN(CC)CC` (stereo not drawn) [Example 155, N-{4-(4-bromo-2-fluoro-phenylamino)-7-[2-(3-diethylamino-propionylamino)-propoxy]-quinazolin-6-yl}-acrylamide], the concentration for half-maximal inhibition (IC50) against EGFR1 (HER-1) was found to be 24 nM; in test [1] (Homo sapiens, A-431, 72 h) it was 35 nM; against VEGFR2 (KDR), 249 nM; in test [2] (Homo sapiens, 72 h), 9550 nM; in test [3] (Homo sapiens, 96 h), 314 nM; in test [4] (Homo sapiens, SK-BR-3, 72 h), 110 nM.

With `C=CC(=O)Nc1cc2c(Nc3ccc(Br)c(Cl)c3F)ncnc2cc1OCC(C)NC(=O)CN(C)C` (stereo not drawn) [Example 157], the IC50 against EGFR1 (HER-1) amounted to 88 nM; in test [1] (72 hours), 95 nM; at VEGFR2 (KDR) it was 687 nM; in test [2] (72 hours), 8360 nM; in test [3] (96 hours), 752 nM; in test [4] (72 hours), 165 nM.

As for `C=CC(=O)Nc1cc2c(Nc3ccc(Br)c(Cl)c3F)ncnc2cc1OC[C@@H](C)NC(=O)CN(C)C` [Example 159], the IC50 against EGFR1 (HER-1) is 286 nM; in test [1] (72 hours) it was 254 nM; against VEGFR2 (KDR), 419 nM; in test [2] (72 hours), 6650 nM; in test [3] (96 hours) it was 423 nM; in test [4] (72 hours), 162 nM.
